For seven molecules, AC50, IC50 and EC50 results are on record in ChEMBL document CHEMBL1201862, “PubChem BioAssay data set” (2004).

Experiment [1] has as its target CAAX prenyl protease 2 (Homo sapiens, UniProt Q9Y256). The experiment can be described thus: human Rce1 protease inhibitors, dose response, biochemical, yeast membranes, quenched-peptide fluorescence, cherry-pick (AID 588849).
Experiment [2] deals with Disintegrin and metalloproteinase domain-containing protein 17 (Homo sapiens, UniProt P78536). The experiment can be described thus: exosite inhibitors of ADAM17, dose response, biochemical (AID 743260).
Sequence of Disintegrin and metalloproteinase domain-containing protein 17 (P78536 whole entry, the tested form may be a part): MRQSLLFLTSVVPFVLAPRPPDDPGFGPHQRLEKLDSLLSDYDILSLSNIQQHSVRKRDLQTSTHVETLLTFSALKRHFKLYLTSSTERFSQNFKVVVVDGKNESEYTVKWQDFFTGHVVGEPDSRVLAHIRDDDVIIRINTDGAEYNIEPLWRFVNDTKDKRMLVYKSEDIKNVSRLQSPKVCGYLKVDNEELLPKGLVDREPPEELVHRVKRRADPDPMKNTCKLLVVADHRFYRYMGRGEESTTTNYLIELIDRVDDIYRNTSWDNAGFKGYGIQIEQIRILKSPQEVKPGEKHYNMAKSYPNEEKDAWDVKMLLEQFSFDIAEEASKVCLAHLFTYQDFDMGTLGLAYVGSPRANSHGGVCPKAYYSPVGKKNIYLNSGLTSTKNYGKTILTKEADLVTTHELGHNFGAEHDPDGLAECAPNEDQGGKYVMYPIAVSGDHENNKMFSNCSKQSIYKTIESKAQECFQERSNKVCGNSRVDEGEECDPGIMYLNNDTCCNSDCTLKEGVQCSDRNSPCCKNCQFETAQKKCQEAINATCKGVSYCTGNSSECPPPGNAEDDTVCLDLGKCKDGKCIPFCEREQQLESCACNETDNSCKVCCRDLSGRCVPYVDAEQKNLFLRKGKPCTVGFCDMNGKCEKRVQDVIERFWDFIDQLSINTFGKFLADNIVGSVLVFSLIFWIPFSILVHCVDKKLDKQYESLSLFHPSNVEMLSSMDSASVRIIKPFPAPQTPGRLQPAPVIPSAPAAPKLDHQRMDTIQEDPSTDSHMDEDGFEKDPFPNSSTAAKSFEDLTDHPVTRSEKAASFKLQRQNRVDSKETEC
A short description of experiment [3]: ADAM10 protease inhibitors, dose response, selectivity assay for ADAM17 exosite inhibitor project, biochemical, FRET peptide substrate, recombinant human ADAM10 (AID 743259).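 Also: ADAM10 enzyme cleaving a FRET peptide substrate.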
Experiment [4] deals with Dual specificity tyrosine-phosphorylation-regulated kinase 1A (Rattus norvegicus, UniProt Q63470). The format is biochemical, Homo sapiens.
The next experiment addresses T1, Interleukin-8 (Homo sapiens, UniProt P10145).
T1 sequence (P10145 whole entry): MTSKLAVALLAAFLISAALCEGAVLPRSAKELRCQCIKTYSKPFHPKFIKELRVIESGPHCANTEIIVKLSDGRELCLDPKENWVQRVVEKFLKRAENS
The experiment can be described thus: Dose Response confirmation of uHTS small molecule hits for cystic fibrosis induced NFkb Inhibitors in a PAF-induced IL8 counterscreen. Conditions: read-out: IC50_Mean. The format is functional.

Experiment [5] concerns the target Dual specificity protein kinase CLK1 (Homo sapiens, UniProt P49759). The experiment can be described thus: CLK1 kinase inhibitors, off-target check, dose response, selectivity assay for Dyrk1A inhibitor project, biochemical, cherry-picked samples (AID 588811).
Experiment [6] concerns the target T2, CAAX prenyl protease 2 (Saccharomyces cerevisiae S288c, UniProt Q03530).
T2 sequence (Q03530 whole entry): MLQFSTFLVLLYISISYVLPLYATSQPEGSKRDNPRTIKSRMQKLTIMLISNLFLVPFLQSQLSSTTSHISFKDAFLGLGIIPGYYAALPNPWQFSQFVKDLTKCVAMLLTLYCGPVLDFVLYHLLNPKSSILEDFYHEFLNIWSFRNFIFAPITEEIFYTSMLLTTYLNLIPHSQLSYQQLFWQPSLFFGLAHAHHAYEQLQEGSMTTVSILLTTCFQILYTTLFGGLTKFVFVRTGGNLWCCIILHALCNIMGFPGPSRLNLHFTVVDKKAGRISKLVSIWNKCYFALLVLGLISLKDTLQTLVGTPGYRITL
The format is biochemical.

Another experiment deals with Beta-galactosidase (Escherichia coli, UniProt Q8VNN2). The experiment can be described thus: beta-galactosidase enzyme inhibitors and activators, dose response, artefact control for CCR6 antagonist project, biochemical, E. coli enzyme, set 3 (AID 504712). Format: functional.
Sequence of Beta-galactosidase (Q8VNN2 whole entry): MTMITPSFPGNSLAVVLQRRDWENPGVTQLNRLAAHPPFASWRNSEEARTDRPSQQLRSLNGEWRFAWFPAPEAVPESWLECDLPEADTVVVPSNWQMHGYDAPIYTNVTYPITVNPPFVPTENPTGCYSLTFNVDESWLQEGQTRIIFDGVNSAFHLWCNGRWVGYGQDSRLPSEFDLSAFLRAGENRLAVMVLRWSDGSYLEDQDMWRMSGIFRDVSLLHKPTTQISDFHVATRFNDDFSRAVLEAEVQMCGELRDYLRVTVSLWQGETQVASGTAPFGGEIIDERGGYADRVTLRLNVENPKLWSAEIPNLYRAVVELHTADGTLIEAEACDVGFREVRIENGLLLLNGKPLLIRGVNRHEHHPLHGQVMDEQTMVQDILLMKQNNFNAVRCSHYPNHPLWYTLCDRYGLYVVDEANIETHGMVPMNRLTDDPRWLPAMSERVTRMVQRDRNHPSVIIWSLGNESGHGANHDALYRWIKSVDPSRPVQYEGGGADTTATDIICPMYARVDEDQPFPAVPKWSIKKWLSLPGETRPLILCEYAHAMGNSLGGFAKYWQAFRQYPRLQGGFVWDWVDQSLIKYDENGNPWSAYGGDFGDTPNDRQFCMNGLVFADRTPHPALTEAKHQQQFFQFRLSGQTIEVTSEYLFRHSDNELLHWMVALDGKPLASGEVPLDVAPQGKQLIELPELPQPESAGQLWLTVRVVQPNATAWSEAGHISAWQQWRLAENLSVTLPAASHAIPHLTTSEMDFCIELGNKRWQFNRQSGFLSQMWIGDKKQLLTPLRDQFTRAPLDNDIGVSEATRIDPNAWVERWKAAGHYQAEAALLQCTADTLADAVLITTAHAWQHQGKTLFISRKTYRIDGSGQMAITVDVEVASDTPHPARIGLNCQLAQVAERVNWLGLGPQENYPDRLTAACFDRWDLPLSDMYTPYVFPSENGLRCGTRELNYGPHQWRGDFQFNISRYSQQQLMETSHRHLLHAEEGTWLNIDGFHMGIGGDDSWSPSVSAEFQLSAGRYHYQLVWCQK
In experiment [7] the target is T3, Short transient receptor potential channel 4 (Mus musculus, UniProt Q9QUQ5).
T3 sequence (Q9QUQ5 whole entry): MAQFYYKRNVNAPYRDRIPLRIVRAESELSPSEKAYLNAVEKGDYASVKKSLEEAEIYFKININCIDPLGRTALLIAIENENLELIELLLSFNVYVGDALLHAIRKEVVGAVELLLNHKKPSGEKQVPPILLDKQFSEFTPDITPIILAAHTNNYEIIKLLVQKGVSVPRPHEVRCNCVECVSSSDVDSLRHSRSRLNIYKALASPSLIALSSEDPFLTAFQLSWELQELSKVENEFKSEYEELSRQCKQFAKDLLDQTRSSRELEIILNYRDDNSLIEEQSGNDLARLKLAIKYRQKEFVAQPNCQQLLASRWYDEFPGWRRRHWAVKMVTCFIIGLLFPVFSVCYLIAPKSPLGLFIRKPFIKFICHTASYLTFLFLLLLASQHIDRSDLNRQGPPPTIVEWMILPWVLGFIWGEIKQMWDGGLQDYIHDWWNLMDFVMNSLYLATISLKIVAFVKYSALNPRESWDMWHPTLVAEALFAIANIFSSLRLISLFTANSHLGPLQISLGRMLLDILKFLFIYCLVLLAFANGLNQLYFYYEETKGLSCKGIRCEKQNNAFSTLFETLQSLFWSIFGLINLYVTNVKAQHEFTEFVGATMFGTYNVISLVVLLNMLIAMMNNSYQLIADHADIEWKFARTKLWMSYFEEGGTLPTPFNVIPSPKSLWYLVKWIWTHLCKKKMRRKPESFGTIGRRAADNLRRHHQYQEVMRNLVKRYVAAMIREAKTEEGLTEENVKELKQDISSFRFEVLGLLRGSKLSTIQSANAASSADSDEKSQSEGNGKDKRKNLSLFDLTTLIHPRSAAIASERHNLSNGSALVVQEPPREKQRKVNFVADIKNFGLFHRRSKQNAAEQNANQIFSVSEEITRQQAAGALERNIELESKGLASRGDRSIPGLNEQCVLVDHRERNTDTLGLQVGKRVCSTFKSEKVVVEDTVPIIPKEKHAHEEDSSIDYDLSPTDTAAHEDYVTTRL
The experiment can be described thus: mouse TRPC4 channel activators, dose response, cell-based, HEK293 TRPC4/mu-opioid, Fluo-4 calcium (AID 434937). The format is functional.

Experiment [8] concerns Streptococcus sp. 'group A'. The experiment can be described thus: growth inhibition of control SK(-) GAS strain, dose response, counter-screen for streptokinase expression inhibitor project, luminescence, kanamycin, BacTiterGlo, confirmation (AID 1900). Format: functional, organism-based.
A further experiment has as its target Apelin receptor (Homo sapiens, UniProt P35414). The experiment can be described thus: APJ beta-arrestin recruitment antagonism, SAR follow-up, selectivity assay for CCR6 antagonist project, cell-based, luminescent, enzyme-fragment complementation (AID 588359). Format: functional.
The target of experiment [9] is T4, Replicative DNA helicase DnaB (Mycobacterium tuberculosis, UniProt P9WMR3).
T4 sequence (P9WMR3 whole entry): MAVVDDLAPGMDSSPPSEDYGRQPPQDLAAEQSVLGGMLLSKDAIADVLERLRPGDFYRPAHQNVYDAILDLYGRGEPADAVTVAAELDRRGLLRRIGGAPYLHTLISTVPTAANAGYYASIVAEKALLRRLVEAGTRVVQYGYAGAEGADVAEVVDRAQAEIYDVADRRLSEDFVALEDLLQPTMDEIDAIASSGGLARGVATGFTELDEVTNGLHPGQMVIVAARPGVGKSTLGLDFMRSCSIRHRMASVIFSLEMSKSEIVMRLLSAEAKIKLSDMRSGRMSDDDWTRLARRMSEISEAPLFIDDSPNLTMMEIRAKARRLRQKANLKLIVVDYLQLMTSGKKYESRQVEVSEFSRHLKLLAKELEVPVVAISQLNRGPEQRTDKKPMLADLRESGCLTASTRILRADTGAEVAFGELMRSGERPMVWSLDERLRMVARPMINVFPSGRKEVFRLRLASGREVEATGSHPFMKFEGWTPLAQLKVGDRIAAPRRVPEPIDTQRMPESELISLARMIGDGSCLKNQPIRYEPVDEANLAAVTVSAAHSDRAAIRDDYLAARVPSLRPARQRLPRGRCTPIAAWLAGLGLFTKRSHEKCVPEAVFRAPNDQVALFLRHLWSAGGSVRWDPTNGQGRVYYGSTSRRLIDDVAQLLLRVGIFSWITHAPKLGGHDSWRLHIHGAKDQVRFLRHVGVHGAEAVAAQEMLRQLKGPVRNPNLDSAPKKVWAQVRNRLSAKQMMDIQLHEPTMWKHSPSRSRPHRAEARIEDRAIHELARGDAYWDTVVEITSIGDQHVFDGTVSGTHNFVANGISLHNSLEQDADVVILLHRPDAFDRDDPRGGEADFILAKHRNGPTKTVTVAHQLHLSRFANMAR
The experiment can be described thus: DnaB intein splicing inhibitors, dose response, biochemical, cell-free fluorescence (AID 449749). Format: functional.

In a further experiment the test system is Streptococcus. The experiment can be described thus: Group A Streptococcus viability loss, dose response, counter-screen for streptokinase expression inhibitor project, luminescence, BacTiterGlo (AID 1915).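 Also: potency for reduction of bacterial viability or growth.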 The format is functional, organism-based.
The target of another experiment is T5, Protein RecA (Mycobacterium tuberculosis, UniProt P9WHJ3).
T5 sequence (P9WHJ3 whole entry): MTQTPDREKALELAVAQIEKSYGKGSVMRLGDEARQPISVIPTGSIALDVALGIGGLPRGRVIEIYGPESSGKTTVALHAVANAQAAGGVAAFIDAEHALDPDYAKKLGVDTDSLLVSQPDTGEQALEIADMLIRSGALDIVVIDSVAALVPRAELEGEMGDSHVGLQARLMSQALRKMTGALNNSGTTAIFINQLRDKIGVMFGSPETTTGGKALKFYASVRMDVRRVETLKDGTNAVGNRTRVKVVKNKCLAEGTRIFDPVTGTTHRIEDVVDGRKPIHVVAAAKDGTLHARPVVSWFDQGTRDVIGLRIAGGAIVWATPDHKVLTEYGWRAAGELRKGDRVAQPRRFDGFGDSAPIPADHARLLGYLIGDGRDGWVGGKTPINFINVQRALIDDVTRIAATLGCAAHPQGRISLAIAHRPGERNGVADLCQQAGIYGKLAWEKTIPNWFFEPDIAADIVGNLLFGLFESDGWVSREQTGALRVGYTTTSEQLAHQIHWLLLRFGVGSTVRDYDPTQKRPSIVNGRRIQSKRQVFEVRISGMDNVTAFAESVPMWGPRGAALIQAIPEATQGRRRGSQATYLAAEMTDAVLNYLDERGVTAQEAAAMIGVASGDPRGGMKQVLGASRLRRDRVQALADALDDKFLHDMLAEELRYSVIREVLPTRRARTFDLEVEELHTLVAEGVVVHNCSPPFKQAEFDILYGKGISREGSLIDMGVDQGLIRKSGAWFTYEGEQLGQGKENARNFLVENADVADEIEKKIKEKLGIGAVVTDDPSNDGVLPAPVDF
The experiment can be described thus: Fluorescence Cell-Free Homogeneous Dose Retest to Identify Inhibitors of RecA-Intein Splicing Activity. [Related pubchem assays (depositor defined):AID2097, AID2223, AID489010, AID492950]. Format: functional.

Experiment [10] has as its system HEK293. The experiment can be described thus: cells. Conditions: Homo sapiens.
The subject of experiment [11] is HEK293. The experiment can be described thus: cells. To be noted: Homo sapiens. The source holds these as a separate data set.
Another experiment addresses Paired box protein Pax-8 (Homo sapiens, UniProt Q06710). The experiment can be described thus: inhibitors of PAX8-driven TPO luciferase reporter, dose response, RMG-I cells, cherry-pick (AID 687027).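 Also: luciferase reporter driven by Pax8 target thyroperoxidase promoter measured by SteadyGlo luminescence.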 The format is functional, cell-based.
Experiment [12] addresses Induced myeloid leukemia cell differentiation protein Mcl-1 (Homo sapiens, UniProt Q07820). Format: functional.

Active and inactive are the calls of the source.

Sequence of Dual specificity protein kinase CLK1 (P49759 whole entry): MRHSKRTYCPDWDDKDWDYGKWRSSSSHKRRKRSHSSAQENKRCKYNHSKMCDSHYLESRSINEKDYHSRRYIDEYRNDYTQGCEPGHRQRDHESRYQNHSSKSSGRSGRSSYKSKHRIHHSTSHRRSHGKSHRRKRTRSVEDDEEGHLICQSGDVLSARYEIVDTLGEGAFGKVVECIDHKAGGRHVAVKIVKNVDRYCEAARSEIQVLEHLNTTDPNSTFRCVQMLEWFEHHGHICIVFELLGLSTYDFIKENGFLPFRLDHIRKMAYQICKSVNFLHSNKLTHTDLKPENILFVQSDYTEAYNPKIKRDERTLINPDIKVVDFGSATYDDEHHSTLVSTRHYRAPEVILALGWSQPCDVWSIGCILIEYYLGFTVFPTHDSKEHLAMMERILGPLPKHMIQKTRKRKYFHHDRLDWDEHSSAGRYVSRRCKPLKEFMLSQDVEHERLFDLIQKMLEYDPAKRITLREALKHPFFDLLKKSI
Sequence of CAAX prenyl protease 2 (Homo sapiens, UniProt Q9Y256) (Q9Y256 whole entry, the tested form may be a part): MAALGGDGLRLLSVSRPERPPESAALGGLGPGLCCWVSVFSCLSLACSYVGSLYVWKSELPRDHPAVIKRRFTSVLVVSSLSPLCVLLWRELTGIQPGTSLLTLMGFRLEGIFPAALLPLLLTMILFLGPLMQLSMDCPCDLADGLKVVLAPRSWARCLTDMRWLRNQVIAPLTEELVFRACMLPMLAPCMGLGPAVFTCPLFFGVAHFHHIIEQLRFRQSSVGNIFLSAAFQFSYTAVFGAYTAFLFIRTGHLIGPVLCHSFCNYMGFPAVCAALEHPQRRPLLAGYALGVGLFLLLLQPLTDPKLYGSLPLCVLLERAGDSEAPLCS
Sequence of Paired box protein Pax-8 (Q06710 whole entry): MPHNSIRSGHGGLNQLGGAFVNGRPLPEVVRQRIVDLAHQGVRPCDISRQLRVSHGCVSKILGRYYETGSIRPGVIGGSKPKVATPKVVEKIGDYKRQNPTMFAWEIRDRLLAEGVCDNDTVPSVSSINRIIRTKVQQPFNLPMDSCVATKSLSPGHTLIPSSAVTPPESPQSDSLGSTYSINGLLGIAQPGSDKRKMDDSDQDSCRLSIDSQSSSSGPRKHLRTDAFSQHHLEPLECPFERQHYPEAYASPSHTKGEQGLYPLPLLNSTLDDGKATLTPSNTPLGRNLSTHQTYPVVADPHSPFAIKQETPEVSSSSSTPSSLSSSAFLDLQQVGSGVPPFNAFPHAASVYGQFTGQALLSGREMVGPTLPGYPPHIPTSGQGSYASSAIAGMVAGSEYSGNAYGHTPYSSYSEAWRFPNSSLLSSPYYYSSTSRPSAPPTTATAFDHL
Sequence of Apelin receptor (P35414 whole entry, the tested form may be a part): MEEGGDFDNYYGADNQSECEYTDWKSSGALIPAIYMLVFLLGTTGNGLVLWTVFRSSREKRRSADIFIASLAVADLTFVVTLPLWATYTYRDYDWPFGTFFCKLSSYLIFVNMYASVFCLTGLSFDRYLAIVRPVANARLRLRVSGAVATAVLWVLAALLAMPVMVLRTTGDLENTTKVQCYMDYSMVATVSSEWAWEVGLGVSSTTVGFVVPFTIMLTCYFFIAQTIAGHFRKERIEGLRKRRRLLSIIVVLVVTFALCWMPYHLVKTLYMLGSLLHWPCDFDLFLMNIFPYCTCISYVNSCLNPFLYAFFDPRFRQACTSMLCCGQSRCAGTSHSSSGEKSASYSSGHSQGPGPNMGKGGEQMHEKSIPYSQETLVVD
Sequence of Induced myeloid leukemia cell differentiation protein Mcl-1 (Q07820 whole entry): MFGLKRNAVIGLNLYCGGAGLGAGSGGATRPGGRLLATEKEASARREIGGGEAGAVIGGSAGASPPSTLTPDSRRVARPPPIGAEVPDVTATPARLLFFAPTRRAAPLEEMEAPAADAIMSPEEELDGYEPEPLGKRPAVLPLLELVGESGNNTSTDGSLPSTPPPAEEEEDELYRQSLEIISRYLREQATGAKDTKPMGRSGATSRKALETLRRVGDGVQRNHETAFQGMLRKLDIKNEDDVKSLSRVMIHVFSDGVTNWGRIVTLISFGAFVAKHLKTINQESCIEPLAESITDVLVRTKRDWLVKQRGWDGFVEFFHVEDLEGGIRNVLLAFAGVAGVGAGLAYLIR

Take `O=C(Nc1cccc2ccccc12)c1ccc(OC(=S)N2CCOCC2)cc1`: the AC50 on CAAX prenyl protease 2 [1] was > 100 µM (inactive). The IC50 in [2] and in experiment [3] was > 69.5 µM (inactive) in each case.
As to `CC1Cc2ccccc2N1c1ncnc2nc[nH]c12` (stereo not given), the AC50 was 0.811 µM (active) in [4] and 0.19 µM (active) in experiment [5]. Further, on Interleukin-8, the IC50 was 10.5 µM (inactive).
Take `CCOc1ccc2nc(O)c(CN(CCN3CCOCC3)Cc3nnnn3C(C)(C)CC)cc2c1`: the AC50 is 7.54 µM (active) at CAAX prenyl protease 2 [1] and > 100 µM (inactive) on CAAX prenyl protease 2 [6].
As for `COC(=O)C1=NN(C(=O)c2cccc(Br)c2)C(O)(c2ccc(Cl)cc2)C1` (stereo not given), the IC50 at Beta-galactosidase was > 66.6 µM (inactive); on Apelin receptor it was 12.1 µM (active). Besides, the EC50 in [7] was 5.31 µM (active); in experiment [8], 2.9 µM (active); in the experiment with Streptococcus, 3.87 µM (active); at Protein RecA, 13.7 µM (active). Moreover, the AC50 in experiment [9] was > 380 µM (inactive).
As for `COc1cccc(Nc2ncnc3ccccc23)c1`, the results for the AC50 in experiment [4] and in [5] were 4.91 µM (active) and 3.94 µM (active), respectively.
Consider `CCCCC(=O)NC(=S)Nc1cccc(Cl)c1N1CCCCC1`, for which the EC50 with HEK293 [10] and in the experiment on HEK293 [11] was > 59.7 µM (inactive) each time.
Take `CCN(CC)S(=O)(=O)c1cc(NC(=O)Cn2ncc(Cl)c(Cl)c2=O)ccc1C`: the AC50 is 4.84 µM (active) at Paired box protein Pax-8 and 11.8 µM (active) in experiment [9]. For the same molecule, the EC50 with HEK293 [10] was > 59.6 µM (inactive); in the experiment on HEK293 [11], > 59.6 µM (inactive); at Protein RecA, 14.5 µM (active). Besides, the IC50 in experiment [12] is 4.21 µM (active).
